Laboratory results published in DBAASP.
≈ marks a conversion by molar mass, not a printed value. Where “and” joins values, the source holds several entries; their conditions need not be identical. Identical values can stand only once.

Columns and labels:
Assay in all cases: ≥ marks a high value that may be exact or a test limit, other limits are often not marked, values filed in µg/mL are converted to µM
[1] = tested on: Streptococcus gordonii ATCC 10558
[2] = tested on: Streptococcus sanguinis ATCC 49295
[3] = tested on: Streptococcus mutans GS-5
[4] = tested on: Streptococcus mutans UA159
[5] = tested on: Pseudomonas aeruginosa 1570
[6] = tested on: Pseudomonas aeruginosa 8600
[7] = tested on: Pseudomonas aeruginosa 5167
[8] = tested on: Pseudomonas aeruginosa ATCC 27853
[9] = tested on: Klebsiella pneumoniae KCTC 2208
[10] = tested on: Acinetobacter baumannii KCTC 2508
Vibrio fluvialis = tested on: Vibrio fluvialis
Vibrio alginolyticus = tested on: Vibrio alginolyticus
Aeromonas hydrophila = tested on: Aeromonas hydrophila
Vibrio parahaemolyticus = tested on: Vibrio parahaemolyticus
Staphylococcus aureus = tested on: Staphylococcus aureus
Escherichia coli = tested on: Escherichia coli
Streptococcus pyogenes = tested on: Streptococcus pyogenes
[11] = tested on: Fusarium oxysporum f.sp. vasinfectum
[12] = tested on: Escherichia coli ATCC 25922
Ramulariopsis gossypii = tested on: Ramulariopsis gossypii
Fusarium oxysporum = tested on: Fusarium oxysporum
[13] = tested on: Candida albicans ATCC 90028
Rhizoctonia solani = tested on: Rhizoctonia solani
Fusarium solani = tested on: Fusarium solani
[14] = tested on: Cryptococcus neoformans ATCC 28957
[15] = tested on: Xanthomonas campestris pv. citri
Trichoderma asperellum = tested on: Trichoderma asperellum
[16] = tested on: Pectobacterium carotovorum
[17] = tested on: Staphylococcus aureus ATCC 25923
[18] = tested on: Bacillus cereus ATCC 14579
[19] = tested on: Pseudomonas syringae pv. tabaci
[20] = tested on: Bacillus subtilis ATCC 23857
[21] = tested on: Candida albicans NCTC 3179
[22] = tested on: Trichosporon beigelii KCTC 7707
[23] = tested on: Staphylococcus aureus CCARM 3090
[24] = tested on: Escherichia coli CCARM 1229
[25] = tested on: Staphylococcus aureus CCARM 3518
[26] = tested on: Escherichia coli CCARM 1238
[27] = tested on: Candida albicans KCTC 7270
[28] = tested on: Pseudomonas aeruginosa 4007
[29] = tested on: Pseudomonas aeruginosa 4891
[30] = tested on: Staphylococcus aureus MTCC 96
[31] = tested on: Klebsiella pneumoniae MTCC 443
[32] = tested on: Pseudomonas aeruginosa MTCC 2488

In the case of `CC(C)C[C@H](NC(=O)[C@H](CCCN=C(N)N)NC(=O)[C@H](Cc1ccccc1)NC(=O)[C@H](Cc1ccccc1)NC(=O)[C@@H](NC(=O)[C@H](CO)NC(=O)[C@@H](N)CC(C)C)[C@@H](C)O)C(=O)N[C@@H](Cc1ccccc1)C(=O)N[C@@H](CC(N)=O)C(=O)O` [LSTFFRLFN], the MIC [1] is reported as at least 224 µM, the MIC [2] is reported as at least 224 µM and the MIC [3] is reported as at least 224 µM. The MIC [4] was at least 224 µM.
For `CC(C)C[C@H](NC(=O)[C@H](CC(C)C)NC(=O)[C@H](CCCCN)NC(=O)[C@H](CCCCN)NC(=O)[C@H](CC(C)C)NC(=O)[C@H](CC(C)C)NC(=O)[C@H](CCCCN)NC(=O)[C@H](C)NC(=O)[C@@H](N)Cc1ccccc1)C(N)=O` [FAKLLKKLL], the MIC [5] was 21.1 µM (≈ 22.6 µg/mL), the MIC [6] was 5.27 µM (≈ 5.65 µg/mL) and the MIC [7] was at least 59.6 µM. For the same compound, the MIC [8] was 7.45 µM and 14.9 µM.
`CC[C@H](C)[C@H](N)C(=O)N[C@@H](C)C(=O)N[C@@H](CCCN=C(N)N)C(=O)N[C@@H](CCCN=C(N)N)C(=O)N[C@@H](C)C(=O)N[C@@H](CC(C)C)C(=O)N[C@@H](CCCCN)C(=O)N[C@@H](CCCCN)C(=O)N[C@@H](C)C(=O)N[C@@H](CCCCN)C(=O)N[C@@H](CCCN=C(N)N)C(=O)N[C@@H](C)C(=O)N[C@@H](CCCN=C(N)N)C(=O)N[C@@H](Cc1cnc[nH]1)C(=O)N[C@H](C(=O)N[C@H](C(=O)N1CCC[C@H]1C(=O)N[C@@H](CCC(N)=O)C(=O)N[C@@H](CS)C(=O)N[C@@H](CCCCN)C(=O)N[C@@H](CCCCN)C(=O)N[C@@H](Cc1ccccc1)C(=O)NCC(=O)N[C@@H](CCCN=C(N)N)C(=O)N[C@@H](CCCN=C(N)N)C(N)=O)[C@@H](C)CC)[C@@H](C)O` [IARRALKKAKRARHTIPQCKKFGRR] showed an MIC [9] of 8 µM (≈ 23.9 µg/mL), an MIC [10] of 4 µM (≈ 12 µg/mL) and an MIC [8] of 1 µM (≈ 2.99 µg/mL).
For `CC(C)C[C@H](NC(=O)[C@H](CCCCN)NC(=O)[C@H](CCC(N)=O)NC(=O)[C@@H](NC(=O)[C@H](C)NC(=O)[C@H](CCC(=O)O)NC(=O)CNC(=O)CN)C(C)C)C(=O)N[C@H](C(=O)N[C@@H](CCCN=C(N)N)C(=O)N[C@@H](CCC(=O)O)C(=O)N[C@H](C(=O)N[C@@H](CCCCN)C(=O)N[C@@H](CC(=O)O)C(=O)NCC(=O)O)C(C)C)C(C)C` [GGEAVQKLVREVKDG], the MIC (Vibrio fluvialis) was at least 78.9 µM, the MIC (Vibrio alginolyticus) was at least 78.9 µM and the MIC (Aeromonas hydrophila) was at least 158 µM. It also gave an MIC (Vibrio parahaemolyticus) of at least 158 µM, an MIC (Staphylococcus aureus) of over 158 µM and an MIC (Escherichia coli) of over 158 µM. For the same compound, the MIC (Streptococcus pyogenes) was at least 158 µM.
With `CSCC[C@H](NC(=O)[C@H](Cc1ccccc1)NC(=O)CNC(=O)[C@H](Cc1cnc[nH]1)NC(=O)[C@H](CC(C)C)NC(=O)[C@H](CO)NC(=O)CN)C(=O)N[C@@H](Cc1ccc(O)cc1)C(=O)N[C@@H](CCCCN)C(=O)N[C@@H](Cc1ccc(O)cc1)C(=O)N[C@@H](CC(C)C)C(=O)N[C@@H](CCCCN)C(=O)N[C@H](C(=O)N[C@@H](CC(C)C)C(=O)N[C@H](C(=O)N[C@@H](CC(C)C)C(=O)N[C@@H](CCCN=C(N)N)C(=O)N[C@@H](CC(C)C)C(=O)N[C@@H](Cc1ccc(O)cc1)C(N)=O)C(C)C)[C@@H](C)O` [GSLHGFMYKYLKTLVLRLY] the MIC [11] was 10.7 µM (≈ 24.6 µg/mL), the MIC [12] was 13.3 µM (≈ 30.7 µg/mL) and the MIC (Ramulariopsis gossypii) was 2 µM (≈ 4.6 µg/mL). It also gave an MIC (Fusarium oxysporum) of 16 µM (≈ 36.8 µg/mL), an MIC [13] of 6.67 µM (≈ 15.4 µg/mL) and an MIC (Rhizoctonia solani) of at least 32 µM. The MIC (Fusarium solani) was 4 µM (≈ 9.21 µg/mL), the MIC [14] was 4 µM (≈ 9.21 µg/mL) and the MIC [15] was 16 µM (≈ 36.8 µg/mL). It also gave an MIC (Trichoderma asperellum) of 16 µM (≈ 36.8 µg/mL), an MIC [16] of 16 µM (≈ 36.8 µg/mL) and an MIC [17] of 16 µM (≈ 36.8 µg/mL). It also gave an MIC [18] of at least 64 µM, an MIC [8] of 16 µM (≈ 36.8 µg/mL) and an MIC [19] of at least 32 µM. For the same compound, the MIC [20] was 8 µM (≈ 18.4 µg/mL).
Compound `CC[C@H](C)[C@H](NC(=O)[C@@H]1CCCN1C(=O)CNC(=O)[C@H](CO)NC(=O)[C@H](CO)NC(=O)[C@@H](NC(=O)[C@H](C)NC(=O)[C@H](CCC(N)=O)NC(=O)[C@H](Cc1ccccc1)NC(=O)[C@H](CCCN=C(N)N)NC(=O)[C@H](CC(C)C)NC(=O)[C@H](CC(C)C)NC(=O)[C@H](CC(C)C)NC(=O)[C@H](CCC(=O)O)NC(=O)[C@H](CCC(=O)O)NC(=O)[C@H](CO)NC(=O)[C@H](C)N)[C@@H](C)O)C(=O)N[C@@H](CC(C)C)C(=O)N[C@@H](CCCN=C(N)N)C(=O)N[C@@H](CCC(=O)O)C(=O)N[C@@H](CCC(=O)O)C(=O)N[C@@H](Cc1ccccc1)C(=O)N[C@@H](CCC(=O)O)C(=O)O` [ASEELLLRFQATSSGPILREEFE] has an MIC [12] of over 95.3 µM, an MIC [21] of at least 95.3 µM and an MIC [17] of over 95.3 µM.
`CC[C@H](C)[C@H](NC(=O)[C@H](CCCCN)NC(=O)[C@H](CCCCN)NC(=O)[C@@H](NC(=O)[C@H](C)NC(=O)[C@H](CCC(=O)O)NC(=O)[C@H](Cc1cnc[nH]1)NC(=O)[C@@H](NC(=O)[C@H](CCCCN)NC(=O)[C@H](CCC(N)=O)NC(=O)[C@H](Cc1ccccc1)NC(=O)[C@@H](NC(=O)[C@H](CCCCN)NC(=O)[C@H](CCCCN)NC(=O)[C@H](CC(C)C)NC(=O)[C@H](C)NC(=O)[C@H](CC(N)=O)NC(=O)[C@@H](N)CC(C)C)C(C)C)[C@@H](C)CC)[C@@H](C)CC)C(N)=O` [LNALKKVFQKIHEAIKKI] showed an MIC [22] of 16 µM (≈ 33.9 µg/mL), an MIC [23] of 4 µM (≈ 8.48 µg/mL) and an MIC [24] of 2 µM (≈ 4.24 µg/mL). The MIC [25] was 4 µM (≈ 8.48 µg/mL), the MIC [26] was 2 µM (≈ 4.24 µg/mL) and the MIC [27] was 16 µM (≈ 33.9 µg/mL). It also gave an MIC [28] of 4 µM (≈ 8.48 µg/mL) and an MIC [29] of 4 µM (≈ 8.48 µg/mL).
Work on `CC(C)C[C@H](NC(=O)[C@H](CCCCN)NC(=O)[C@H](CCCCN)NC(=O)[C@H](CC(C)C)NC(=O)[C@H](Cc1c[nH]c2ccccc12)NC(=O)[C@H](CCCCN)NC(=O)[C@@H](N)CC(C)C)C(N)=O` [LKWLKKL] yielded an MIC [30] of at least 80 µM, an MIC [31] of at least 50 µM and an MIC [32] of 30 µM (≈ 27.8 µg/mL).
